In US20170202932A1, “METHODS FOR INHIBITING NEURON APOPTOSIS AND NECROSIS” (NEWSOUTH INNOVATIONS PTY LIMITED, priority 2012, published 2017):

Columns and labels:
[1] = target: T1, recombinant mouse TRPC3c channels (Mus musculus, UniProt Q9QZC1, DEL811-838); experiment: Indo-1 ratiometric Ca2+ imaging of CCh-activated Ca2+ entry, HEK293 cells expressing TRPC3c; assay type: cell-based; details: genistein 200 μM pre-incubation, n=5, without genistein 575.6±44.2 nM
T1 construct: expressed in transfected cells; host or cells: HEK293 cells, stably transfected (pIRES-DsRed2 vector)
T1 sequence (Q9QZC1 with tags, fused parts or gaps DEL811-838): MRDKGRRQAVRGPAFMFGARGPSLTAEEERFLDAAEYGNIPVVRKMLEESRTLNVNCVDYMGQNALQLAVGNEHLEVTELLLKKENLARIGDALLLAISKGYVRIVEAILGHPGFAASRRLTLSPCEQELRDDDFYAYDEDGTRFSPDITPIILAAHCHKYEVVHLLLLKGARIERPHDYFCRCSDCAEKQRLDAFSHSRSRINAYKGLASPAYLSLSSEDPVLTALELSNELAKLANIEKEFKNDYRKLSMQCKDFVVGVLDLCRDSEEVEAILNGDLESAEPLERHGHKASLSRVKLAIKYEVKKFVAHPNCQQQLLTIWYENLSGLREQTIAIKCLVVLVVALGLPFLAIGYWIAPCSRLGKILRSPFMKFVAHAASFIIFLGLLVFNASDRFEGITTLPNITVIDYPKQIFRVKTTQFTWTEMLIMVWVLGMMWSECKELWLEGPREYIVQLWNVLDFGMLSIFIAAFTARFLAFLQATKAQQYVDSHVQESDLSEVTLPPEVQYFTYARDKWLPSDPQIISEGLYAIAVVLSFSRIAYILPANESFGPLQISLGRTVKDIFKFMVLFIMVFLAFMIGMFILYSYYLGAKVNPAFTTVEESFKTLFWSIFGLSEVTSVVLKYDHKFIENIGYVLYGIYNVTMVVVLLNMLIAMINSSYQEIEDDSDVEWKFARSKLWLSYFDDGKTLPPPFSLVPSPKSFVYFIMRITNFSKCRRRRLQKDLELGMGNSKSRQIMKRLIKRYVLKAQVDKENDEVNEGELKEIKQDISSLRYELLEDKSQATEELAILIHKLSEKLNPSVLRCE
Procedure: (§1) The TRPC3-mediated Ca^2+ entry through two distinct activation pathways was assessed by microfluorometric Ca^2+ imaging: i) Ca^2+ entry via the M3 receptor-PLCB-DAG pathway endogenous to HEK293 cells, using Indo-1 as a Ca^2+ indicator; and ii) Ca^2+ entry via mGluR1-PLCB-DAG through co-expression of the mGluR1, using Fluo-4 as a Ca^2+ indicator.
(§2) Cells were grown in DMEM media on 18 mm circular coverslips coated with poly-D-lysine (25 μg/ml) and collagen (25 μg/ml) at 1:1 ratio. The cells were washed with HPSS. The coverslips were then incubated with HPSS and 0.1% pluronic acid, along with either 1 μM Indo-1AM or Fluo-4AM Ca^2+ indicator (Invitrogen, U.S.A.) for an hour prior to the experiment. The cells were then placed into HPSS with 5 μM GdCl3 to block endogenous Ca^2+ entry (added to all superfusions). The M3 AChR-mediated TRPC3 activation was achieved by bath application of carbachol. The mGluR1-mediated TRPC3 activation was achieved by bath application of DHPG.
(§3) For Indo-1 experiments, the cells were mounted on a Nikon TMD inverted microscope fitted with an Indo-1 filter set (Nikon Indo-1 filter cube, 485 nm/DM455 nm/405 nm) and illuminated with a mercury lamp. Cells were excited at 350 nm, with dual emission of the field was detected at 410 nm and 480 nm using two photomultiplier tubes, and the ratioed emission was determined in real-time using in-house software. […]

[2] = target: T2, recombinant mouse TRPC3b channels (Mus musculus, UniProt Q9QZC1, R524G); experiment: Indo-1 ratiometric Ca2+ imaging of CCh-activated Ca2+ entry, HEK293 cells expressing TRPC3b; assay type: cell-based; details: genistein 200 μM pre-incubation, n=5, without genistein 182.7±20.8 nM
T2 construct: Full length mouse TRPC3 transcripts were obtained by PCR; expressed in transfected cells; host or cells: HEK293 cells, stably transfected (pIRES-DsRed2 vector)
T2 sequence (Q9QZC1 75-910 R524G limits assumed): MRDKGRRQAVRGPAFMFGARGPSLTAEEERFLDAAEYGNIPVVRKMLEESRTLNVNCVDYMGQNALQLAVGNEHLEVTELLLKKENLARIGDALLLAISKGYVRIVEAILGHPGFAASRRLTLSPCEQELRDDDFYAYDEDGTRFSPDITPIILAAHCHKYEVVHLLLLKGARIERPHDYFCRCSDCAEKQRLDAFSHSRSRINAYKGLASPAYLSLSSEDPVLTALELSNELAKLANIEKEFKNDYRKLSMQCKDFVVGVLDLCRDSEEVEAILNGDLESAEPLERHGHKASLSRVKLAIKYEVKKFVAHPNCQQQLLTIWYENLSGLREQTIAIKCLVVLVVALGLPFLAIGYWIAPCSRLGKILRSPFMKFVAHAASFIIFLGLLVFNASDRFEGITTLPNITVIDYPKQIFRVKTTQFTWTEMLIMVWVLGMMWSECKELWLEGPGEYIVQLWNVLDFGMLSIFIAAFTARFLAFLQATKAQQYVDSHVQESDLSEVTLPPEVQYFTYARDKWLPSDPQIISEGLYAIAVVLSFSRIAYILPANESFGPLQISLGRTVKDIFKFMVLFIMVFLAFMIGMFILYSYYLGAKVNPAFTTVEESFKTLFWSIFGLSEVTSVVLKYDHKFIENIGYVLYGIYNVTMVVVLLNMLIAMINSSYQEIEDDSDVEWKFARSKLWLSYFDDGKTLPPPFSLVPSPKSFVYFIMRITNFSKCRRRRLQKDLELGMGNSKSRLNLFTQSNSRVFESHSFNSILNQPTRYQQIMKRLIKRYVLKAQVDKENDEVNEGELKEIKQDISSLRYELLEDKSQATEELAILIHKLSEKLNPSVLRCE
Procedure: as §1, §2, §3

- peak [Ca2+] on return of extracellular Ca2+ (CCh-activated Ca2+ entry) [1]: 81.9 ± 19.8 nM
- peak [Ca2+] on return of extracellular Ca2+ (CCh-activated Ca2+ entry) [2]: 86.7 ± 8.7 nM
Compound: O=c1c(-c2ccc(O)cc2)coc2cc(O)cc(O)c12 [genistein, 4′, 5,7-trihydroxyisoflavone]
